Tested on: pseudotyped SARS-CoV-2 virus
Assay type: cell-based

Substance	differential antiviral activity
DISGINASVVNIQK8IDRLNEXAKNLNESLIDLQELGK [SEQ ID NO: 11]	little to no activity
DISGINASVVNIQKEID8LNEVAKXLNESLIDLQELGK [SEQ ID NO: 14]	little to no activity
DISGINASVVNIQKEIDR8NEVAKNXNESLIDLQELGK [SEQ ID NO: 15]	little to no activity
DISGINASVVNIQKEI8RLNEVAXNLNESLIDLQELGK [SEQ ID NO: 13]	moderate activity
DISGINASVVNIQKEIDRL8EVAKNLXESLIDLQELGK [SEQ ID NO: 16]	moderate activity
